{"source": "patent US8617607B2", "about": "“Sustained release formulations of psychoactive drugs” (TYRX, Inc., priority 2008, dated 2013)", "conditions": "0.1% solution, PBS, 37° C.", "data": [{"smiles": "Cc1cc2c(s1)Nc1ccccc1N=C2N1CCN(C)CC1", "note": "[Olanzapine, 2-methyl-4-(4-methyl-1-piperazinyl)-10H-thieno[2,3-b][1,5]benzodiazepine]", "values": [{"measurement": "time for which olanzapine was stable", "result": "≥ 14", "unit": "days"}]}]}
